Reference: the NIST ThermoML archive (doi:10.1021/je7001418)
± gives the expanded uncertainty stated by the source.

Assay: cn = amount concentration of the nth substance listed, in mol/dm3
Conditions: 298.15 K, 101.3 kPa, Liquid; for viscosity: Capillary tube (Ostwald / Ubbelohde) method; for mass density: Pycnometric method

SMILES: C[N+](C)(C)C.[I-] [tetramethylammonium iodide] + O
- viscosity (c1 = 0.05): 0.805 ± 0.008 mPa·s
- viscosity (c1 = 0.1): 0.812 ± 0.008 mPa·s
- viscosity (c1 = 0.15): 0.819 ± 0.008 mPa·s
- mass density (c1 = 0.05): 1001 ± 1 kg/m3
- mass density (c1 = 0.1): 1003 ± 1 kg/m3
- mass density (c1 = 0.15): 1009 ± 1 kg/m3
